Reference: PubChem BioAssay AID256 (DTP/NCI, 2004)
“And” between values parts separate entries of the source, which are not always exact repeats. Equal values may be shown once. Toxic doses and inconclusive results are not listed. How the source made its calls: active means survival T/C of 150% or more; inactive means T/C below 125% in these data.

Test system: CD2F1 mice, L1210 leukemia ip, survival T/C
Assay: NCI In Vivo Anticancer Drug Screen. Data for tumor model L1210 Leukemia (intraperitoneal) in CD2F1 (CDF1) mice
Conditions: endpoint: mean survival time, higher = longer survival
Summary of the method: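 Mice carrying a transplanted tumor received test compound or vehicle alone. The value is the measurement in the treated group divided by that in the vehicle-treated control group.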

[1] = dose: 100.0 mg/kg/injection, schedule: Q04DX002 (ip), vehicle: Klucel (hydroxypropylcellulose) (HPC)
[2] = dose: 200.0 mg/kg/injection, schedule: Q04DX002 (ip), vehicle: Klucel (hydroxypropylcellulose) (HPC)
[3] = dose: 400.0 mg/kg/injection, schedule: Q04DX002 (ip), vehicle: Klucel (hydroxypropylcellulose) (HPC)
[4] = dose: 100.0 mg/kg/injection, schedule: Q04DX003 (ip), vehicle: saline with Tween-80
[5] = dose: 200.0 mg/kg/injection, schedule: Q04DX003 (ip), vehicle: saline with Tween-80
[6] = dose: 400.0 mg/kg/injection, schedule: Q04DX003 (ip), vehicle: saline with Tween-80
[7] = dose: 100.0 mg/kg/injection, schedule: Q04DX002 (ip), vehicle: saline with Tween-80
[8] = dose: 200.0 mg/kg/injection, schedule: Q04DX002 (ip), vehicle: saline with Tween-80
[9] = dose: 6.25 mg/kg/injection, schedule: Q01DX009 (ip), vehicle: saline with Tween-80
[10] = dose: 12.5 mg/kg/injection, schedule: Q01DX009 (ip), vehicle: saline with Tween-80
[11] = dose: 25.0 mg/kg/injection, schedule: Q01DX009 (ip), vehicle: saline with Tween-80
[12] = dose: 100.0 mg/kg/injection, schedule: Q01DX009 (ip), vehicle: saline with Tween-80
[13] = dose: 200.0 mg/kg/injection, schedule: Q01DX009 (ip), vehicle: saline with Tween-80
[14] = dose: 400.0 mg/kg/injection, schedule: Q01DX009 (ip), vehicle: saline with Tween-80
[15] = dose: 100.0 mg/kg/injection, schedule: Q01DX001 (ip), vehicle: saline with Tween-80
[16] = dose: 200.0 mg/kg/injection, schedule: Q01DX001 (ip), vehicle: saline with Tween-80
[17] = dose: 400.0 mg/kg/injection, schedule: Q01DX001 (ip), vehicle: saline with Tween-80
[18] = dose: 100.0 mg/kg/injection, schedule: Q04DX003 (ip), vehicle: Klucel (hydroxypropylcellulose) (HPC)

Measured: T/C

C=CCC1CN(CCC(O)c2ccc(F)cc2)CCC1(OC(=O)CC)c1ccccc1 (stereo unspecified)
inactive: [1] 93 % of control | [2] 101 % of control | [3] 104 % of control

CCC(=O)c1cc([N+](=O)[O-])ccc1NC(C)=O
inactive: [4] 100 % of control | [5] 94 % of control | [6] 88 % of control

COc1ccc2c(O)c(C)c(=O)n(C)c2c1
inactive: [7] 96 % of control | [8] 96 % of control | dose: 400.0 mg/kg/injection, schedule: Q04DX002 (ip), vehicle: saline with Tween-80 93 % of control

CCCCCCCCNC(C)=O
inactive: [9] 93 % of control | [10] 90 % of control | [11] 94 % of control

CN(C)Nc1cc(N)c(N=Nc2ccccc2)c(=O)[nH]1
inactive: dose: 100.0 mg/kg/injection, schedule: Q01DX001 (ip), vehicle: Klucel (hydroxypropylcellulose) (HPC) 107 % of control | dose: 200.0 mg/kg/injection, schedule: Q01DX001 (ip), vehicle: Klucel (hydroxypropylcellulose) (HPC) 97 % of control | dose: 400.0 mg/kg/injection, schedule: Q01DX001 (ip), vehicle: Klucel (hydroxypropylcellulose) (HPC) 117 % of control

C=C[CH2][Sn]([CH2]C=C)([CH2]CCC)[CH2]CCC
inactive: [9] 95 % of control | [10] 100 % of control | [11] 94 % of control

CCOC(=O)c1c(C)csc1NC(C)=O
inactive: [12] 108 % of control | [4] 96 % of control | [13] 97 % of control | [5] 98 % of control | [14] 90 % of control | [6] 93 % of control

CC1CCOC(c2ccccc2)O1 (stereo unspecified)
inactive: dose: 50.0 mg/kg/injection, schedule: Q04DX002 (ip), vehicle: saline with Tween-80 102 % of control | [7] 94 % of control | [8] 97 % of control

CC[N+](CC)=C1SCCCS1
inactive: dose: 6.25 mg/kg/injection, schedule: Q04DX003 (ip), vehicle: saline 100 % of control | dose: 12.5 mg/kg/injection, schedule: Q04DX003 (ip), vehicle: saline 100 % of control | dose: 25.0 mg/kg/injection, schedule: Q04DX003 (ip), vehicle: saline 100 % of control

CC(=O)N1C(=O)C2(Nc3cccnc3N2)c2ccccc21 (stereo unspecified)
inactive: dose: 100.0 mg/kg/injection, schedule: Q04DX003 (ip), vehicle: saline sonified 97 % of control | dose: 200.0 mg/kg/injection, schedule: Q04DX003 (ip), vehicle: saline sonified 88 % of control | dose: 400.0 mg/kg/injection, schedule: Q04DX003 (ip), vehicle: saline sonified 103 % of control

COc1ccc2nc3cc(Cl)ccc3c(N)c2c1
inactive: dose: 2.5 mg/kg/injection, schedule: Q01DX009 (ip), vehicle: Klucel (hydroxypropylcellulose) (HPC) 110 % of control | dose: 5.0 mg/kg/injection, schedule: Q01DX009 (ip), vehicle: Klucel (hydroxypropylcellulose) (HPC) 103 % of control | dose: 10.0 mg/kg/injection, schedule: Q01DX009 (ip), vehicle: Klucel (hydroxypropylcellulose) (HPC) 98 % of control

CC(C)(CO)C(O)C(=O)NC1CCCCC1 (stereo unspecified)
inactive: [15] 98 % of control | [12] 102 % of control | [16] 102 % of control | [13] 100 % of control | [17] 94 % of control | [14] 97 % of control

C=CCOCC(O)CNCCCC (stereo unspecified)
inactive: dose: 12.5 mg/kg/injection, schedule: Q01DX009 (ip), vehicle: saline 96 % of control | dose: 25.0 mg/kg/injection, schedule: Q01DX009 (ip), vehicle: saline 107 % of control | dose: 50.0 mg/kg/injection, schedule: Q01DX009 (ip), vehicle: saline 96 % of control and 111 % of control

Cc1ccc(NC(=O)CI)cc1
inactive: dose: 100.0 mg/kg/injection, schedule: Q04DX002 (ip), vehicle: other 102 % of control

O=C(CNC(=O)NCc1ccco1)N/N=C/c1c(O)ccc2ccccc12
inactive: dose: 50.0 mg/kg/injection, schedule: Q01DX009 (ip), vehicle: saline with Tween-80 93 % of control | [12] 97 % of control | [13] 101 % of control

CCCCCC(CN(C)C)C(=O)/C=C\c1ccc(Cl)cc1Cl (stereo unspecified)
inactive: dose: 12.5 mg/kg/injection, schedule: Q01DX009 (ip), vehicle: alcohol 102 % of control | dose: 25.0 mg/kg/injection, schedule: Q01DX009 (ip), vehicle: alcohol 102 % of control

COCCOCCN1CCN(CCCN2c3ccccc3Sc3ccc(C(F)(F)F)cc32)CC1
inactive: dose: 37.5 mg/kg/injection, schedule: Q04DX003 (ip), vehicle: saline 113 % of control | dose: 50.0 mg/kg/injection, schedule: Q04DX003 (ip), vehicle: saline 121 % of control

Cc1ccc(C(=O)CCC(=O)O)c(C)c1
inactive: [12] 100 % of control | [13] 105 % of control | [14] 98 % of control

Cc1ccc2c(C)nc(N=C(N)N)nc2c1
inactive: dose: 18.8 mg/kg/injection, schedule: Q01DX009 (ip), vehicle: saline 103 % of control | dose: 37.5 mg/kg/injection, schedule: Q01DX009 (ip), vehicle: saline 96 % of control

C=C(C)C12OC3(CCCCCCCCC)OC1C1C4OC4(COC(=O)CCCCCCCCCCCCCCC)C(O)C4(O)C(=O)C(C)=CC4C1(O3)C(C)C2OC(=O)c1ccccc1 (stereo unspecified)
inactive: dose: 5.0 micrograms/kg/injection, schedule: Q01DX009 (ip), vehicle: saline + alcohol 97 % of control | dose: 10.0 micrograms/kg/injection, schedule: Q01DX009 (ip), vehicle: saline + alcohol 117 % of control | dose: 20.0 micrograms/kg/injection, schedule: Q01DX009 (ip), vehicle: saline + alcohol 105 % of control | dose: 40.0 micrograms/kg/injection, schedule: Q01DX009 (ip), vehicle: saline + alcohol 112 % of control

O=C(COc1ccc(Cl)cc1C(=O)O)NCc1cccc(NC(=O)Nc2cccc(S(=O)(=O)F)c2)c1
inactive: [15] 91 % of control | [16] 93 % of control | [17] 88 % of control

O=C(O)c1cccc2c1C(=O)c1ccccc1C2=O
inactive: [18] 117 % of control | dose: 200.0 mg/kg/injection, schedule: Q04DX003 (ip), vehicle: Klucel (hydroxypropylcellulose) (HPC) 101 % of control | dose: 400.0 mg/kg/injection, schedule: Q04DX003 (ip), vehicle: Klucel (hydroxypropylcellulose) (HPC) 109 % of control

CC1OC(=O)c2ccccc2S1=O (stereo unspecified)
inactive: dose: 100.0 mg/kg/injection, schedule: Q01DX009 (ip), vehicle: saline sonified 98 % of control | [4] 98 % of control | dose: 200.0 mg/kg/injection, schedule: Q01DX009 (ip), vehicle: saline sonified 97 % of control | [5] 100 % of control | dose: 400.0 mg/kg/injection, schedule: Q01DX009 (ip), vehicle: saline sonified 97 % of control | [6] 104 % of control

CC(C)N(CCN(C)C(=O)C(O)(c1ccccc1)c1ccccc1)C(C)C
inactive: dose: 50.0 mg/kg/injection, schedule: Q04DX003 (ip), vehicle: saline with Tween-80 101 % of control | [4] 93 % of control and 98 % of control | [5] 104 % of control

O/N=C(\c1ccccc1)C1C(/C(=N/O)c2ccccc2)C1c1ccccc1 (stereo unspecified) (tested in a mixture with another compound)
inactive: [12] 95 % of control | [13] 95 % of control | [14] 90 % of control

CC(=O)CC(OC(C)=O)(C(F)(F)F)C(F)(F)F
inactive: dose: 25.0 mg/kg/injection, schedule: Q04DX002 (ip), vehicle: saline 98 % of control | dose: 50.0 mg/kg/injection, schedule: Q04DX002 (ip), vehicle: saline 102 % of control | [18] 90 % of control

CCCCOS(=O)(=O)c1ccc(C)cc1
inactive: [1] 93 % of control | [2] 101 % of control | [3] 90 % of control

c1ccc(C2Nc3ccccc3NC2c2ccccc2)cc1 (stereo unspecified)
inactive: [15] 95 % of control | [16] 97 % of control | [17] 103 % of control

CN(C)C(=O)Sc1ccc(S(=O)(=O)F)cc1F
inactive: [7] 91 % of control | [8] 91 % of control

COC(=O)C1(C)CCCC2(C)C1CCC1(O)C2CC2OC2(C(C)C)C1O (stereo unspecified)
inactive: [12] 102 % of control | [4] 97 % of control | [13] 96 % of control | [5] 93 % of control | [14] 98 % of control | [6] 87 % of control

CCC(c1ccccc1)C(CC)c1ccc(N(C)C)cc1 (stereo unspecified)
inactive: dose: 50.0 mg/kg/injection, schedule: Q01DX009 (ip), vehicle: Klucel (hydroxypropylcellulose) (HPC) 95 % of control | dose: 100.0 mg/kg/injection, schedule: Q01DX009 (ip), vehicle: Klucel (hydroxypropylcellulose) (HPC) 94 % of control | dose: 200.0 mg/kg/injection, schedule: Q01DX009 (ip), vehicle: Klucel (hydroxypropylcellulose) (HPC) 91 % of control | dose: 400.0 mg/kg/injection, schedule: Q01DX009 (ip), vehicle: Klucel (hydroxypropylcellulose) (HPC) 97 % of control
